The source of these data is paper PMC10223987 (Viruses, 2023).

One data set relates to VeroE6-TMPRSS2 cells. As to the kind of experiment: Cell toxicity assay (Celltiter-Glo). The format is cell-based. The note with it: 24 h, read-out: Cell Viability Inhibition IC50. (In ATP-based viability assays light output follows the ATP content of the culture.)
The next data set concerns SARS-CoV-2 pseudovirus. As to the kind of experiment: microbe, parasite or virus in culture. The format is cell-based. To be noted: Severe acute respiratory syndrome-related coronavirus; for inhibition at 100 µM: VeroE6/TMPRSS2, read-out: SARS-CoV-2 Pseudovirus % Inhibition; for IC50: VeroE6/TMPRSS2, read-out: SARS-CoV-2 Pseudovirus IC50.
For another data set, the target named is thrombin (Homo sapiens, UniProt P00734). The experiment in a line: Thrombin enzyme inhibition assay. The format is biochemical.
The subject of data set [1] is ACE2/TMPRSS2-dependant SARS-CoV-2 S protein-mediated membrane fusion. The experiment in a line: microbe, parasite or virus in culture. The format is cell-based.
Another data set has as its target factor Xa (Homo sapiens, UniProt P00742). As to the kind of experiment: Factor Xa enzyme inhibition assay. The format is biochemical.
For data set [2], the system named is DSP1-7 and DSP8-11 co-expressing 293FT cells. As to the kind of experiment: cells. The format is cell-based. The note with it: TMPRSS2-independent / DSP reassociation control; read-out: CoTF Assay IC50.
Another data set has as its target TMPRSS2 (Homo sapiens, UniProt O15393). As to the kind of experiment: TMPRSS2 enzyme inhibition assay (fluorescence-quenched peptide substrate). The note with it: enzymatic assay. The format is biochemical.
The conditions of data set [3]: cited from earlier work.
[4] abbreviates: Severe acute respiratory syndrome coronavirus 2, read-out: S2TA Assay IC50.

The structures appear in SMILES notation. Counter-ions that a name gives are not always drawn. Like-named read-outs stand apart in the source and are kept apart here.

Chain of factor Xa (P00742 235-488 limits assumed): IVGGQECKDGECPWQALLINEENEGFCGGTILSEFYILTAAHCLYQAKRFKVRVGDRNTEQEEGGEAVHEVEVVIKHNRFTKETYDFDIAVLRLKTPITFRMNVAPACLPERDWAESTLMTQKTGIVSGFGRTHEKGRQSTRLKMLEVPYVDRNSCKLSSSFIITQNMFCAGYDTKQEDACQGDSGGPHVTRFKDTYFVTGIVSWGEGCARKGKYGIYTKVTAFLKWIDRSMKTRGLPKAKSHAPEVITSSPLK
Chain of factor Xa (P00742 41-179 partner limits assumed): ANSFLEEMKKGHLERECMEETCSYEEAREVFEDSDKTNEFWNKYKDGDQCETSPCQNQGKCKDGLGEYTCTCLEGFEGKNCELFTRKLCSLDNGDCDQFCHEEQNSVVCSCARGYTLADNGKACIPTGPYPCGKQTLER
Chain of TMPRSS2 (O15393 whole entry): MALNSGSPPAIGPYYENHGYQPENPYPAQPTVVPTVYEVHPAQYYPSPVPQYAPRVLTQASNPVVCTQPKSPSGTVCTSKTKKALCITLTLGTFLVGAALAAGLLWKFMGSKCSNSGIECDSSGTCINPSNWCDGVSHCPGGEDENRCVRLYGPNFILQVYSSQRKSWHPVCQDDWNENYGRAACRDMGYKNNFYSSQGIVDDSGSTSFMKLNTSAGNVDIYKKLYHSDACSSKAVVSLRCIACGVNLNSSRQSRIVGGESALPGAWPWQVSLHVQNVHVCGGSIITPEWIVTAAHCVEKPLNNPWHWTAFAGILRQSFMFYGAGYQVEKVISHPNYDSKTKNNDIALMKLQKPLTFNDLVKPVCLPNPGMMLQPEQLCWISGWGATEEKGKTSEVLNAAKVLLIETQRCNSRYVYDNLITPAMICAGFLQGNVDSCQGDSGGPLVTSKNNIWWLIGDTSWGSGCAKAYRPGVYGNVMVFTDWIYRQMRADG

The melting point is the temperature, or range, at which the solid turns liquid. Take `N=C(N)c1ccc2nc(-c3cccc(-c4nc5ccc(C(=N)N)cc5[nH]4)n3)[nH]c2c1` (as salt: HCl) [Compound 10]: the melting point is more than 300 °C.
Usually IC50 stands for the concentration that inhibits the measured activity by half. A word on the inhibition: it is the percentage by which the read-out fell short of the control. In the case of `N=C(N)c1ccc(-c2ccc(-c3ccc(C(=N)N)cc3)o2)cc1` [Compound 7], the IC50 is more than 100 µM with VeroE6-TMPRSS2 cells; more than 100 µM with SARS-CoV-2 pseudovirus; 79.1 µM at thrombin; more than 100 µM in data set [1] (setting [4]); 30.9 µM at factor Xa; more than 100 µM in data set [2]. Also, the midpoint of inhibition against TMPRSS2, the IC50, lay at 82.7 µM. For the same compound, the inhibition at 100 µM in the data set on SARS-CoV-2 pseudovirus worked out at 2.66%. The “fold less potential factor Xa inhibitor relative to pentamidine” value at factor Xa (relative to pentamidine) turned out to be 5 fold.
With `N=C(N)c1ccc2nc(-c3cccc(-c4nc5ccc(C(=N)N)cc5[nH]4)n3)[nH]c2c1` [Compound 10], the results for the IC50 (at thrombin; at factor Xa; in [2]) were 0.921 µM, 5.93 µM and 37.8 µM, respectively.
Consider `CC(C)NC(=N)c1ccc2nc(-c3cccc(-c4nc5ccc(C(=N)NC(C)C)cc5[nH]4)n3)[nH]c2c1` [Compound 11], for which the IC50 in the data set with VeroE6-TMPRSS2 cells is more than 100 µM; in the data set on SARS-CoV-2 pseudovirus it was more than 100 µM; against thrombin, more than 1 µM; in data set [1] (setting [4]), more than 100 µM; against factor Xa it was more than 1 µM; in data set [2] it was more than 100 µM. The same compound gave an IC50 at TMPRSS2 of more than 10 µM. For the same compound, the inhibition at 100 µM in the data set with SARS-CoV-2 pseudovirus is 27%.
Regarding `N=C(N)c1ccc2nc(-c3cccc(-c4nc5ccc(C(=N)N)cc5[nH]4)c3)[nH]c2c1` [Compound 12], the IC50 was more than 100 µM with VeroE6-TMPRSS2 cells; more than 100 µM in the data set with SARS-CoV-2 pseudovirus; 0.862 µM against thrombin; more than 100 µM in [1] (setting [4]); 34.1 µM on factor Xa; more than 100 µM in [2]. Besides, at TMPRSS2, the midpoint of inhibition, the IC50, lay at 4.89 µM. Besides, the inhibition at 100 µM with SARS-CoV-2 pseudovirus worked out at 17.1%.
Turning to `N=C(N)c1ccc2nc(-c3ccc(-c4cccc(-c5ccc(-c6nc7ccc(C(=N)N)cc7[nH]6)cc5)n4)cc3)[nH]c2c1` [Compound 13], the IC50 is more than 100 µM in the data set with VeroE6-TMPRSS2 cells; more than 100 µM in the data set on SARS-CoV-2 pseudovirus; 0.929 µM against thrombin; 13.7 µM in data set [1] (setting [4]); 4.89 µM against factor Xa; 37 µM in [2]. Also, the IC50 against TMPRSS2 came out at 72.4 µM. For the same compound, the inhibition at 100 µM in the data set with SARS-CoV-2 pseudovirus came to 20.5%.
For `CC(C)NC(=N)c1ccc2nc(-c3ccc(-c4cccc(-c5ccc(-c6nc7ccc(C(=N)NC(C)C)cc7[nH]6)cc5)n4)cc3)[nH]c2c1` [Compound 14], the IC50 in the data set with VeroE6-TMPRSS2 cells is more than 100 µM; with SARS-CoV-2 pseudovirus, 83.7 µM; against thrombin it was 2.25 µM; in data set [1] (setting [4]) it was 16.9 µM; in [1] (read-out: S2TA Assay IC50), 10.9 µM; on factor Xa, more than 10 µM. The IC50 was 31 µM in data set [2] and more than 100 µM against TMPRSS2. In the data set with SARS-CoV-2 pseudovirus, the inhibition at 100 µM is 77.4%.
As for `N=C(N)c1ccc2cc(OC(=O)c3ccc(N=C(N)N)cc3)ccc2c1` [Nafamostat, nafamostat, reference compound], the plasma half-life result in [3] is given as “less than 1 min”. Besides, the IC50 against thrombin is 0.0341 µM; against factor Xa, 1.74 µM.
Regarding `N=C(N)c1ccc(OCCCCCOc2ccc(C(=N)N)cc2)cc1` [Pentamidine, pentamidine, reference compound], the IC50 in the data set on VeroE6-TMPRSS2 cells is more than 100 µM; in the data set on SARS-CoV-2 pseudovirus, 45 µM; at thrombin, 1.51 µM; in data set [1] (setting [4]) it was 32.3 µM; at factor Xa it was 6.22 µM; in data set [2], more than 100 µM. This compound also returned an IC50 on TMPRSS2 of 3.98 µM. The inhibition at 100 µM in the data set with SARS-CoV-2 pseudovirus was found to be 69.5%.
With `CN(C)C(=O)COC(=O)Cc1ccc(OC(=O)c2ccc(NC(=N)N)cc2)cc1` [camostat], the plasma half-life in data set [3] is 23.1 min.
